For seven molecules, IC50 results are on record in patent US11793823B2, “Compounds and pharmaceutical uses thereof” (SyneuRx International (Taiwan) Corp., priority 2020, dated 2023).

The target in this experiment is human D-amino acid oxidase (hDAAO) (Homo sapiens (Human), UniProt P14920). As to the kind of experiment: In vitro human D-amino acid oxidase (hDAAO) activity, D-Serine/Amplex Red fluorescence. In kind it is biochemical. The conditions noted are these: D-Serine substrate, 20 min. As to the method:
The hDAAO inhibitory activities were measured by using D-Serine as a substrate to produce H2O2. The produced H2O2 would be oxidized by peroxidase, and the produced free radicals would further react with Amplex Red reagent to emit fluorescence. The intensity of fluorescence at 590 nm would be measured to represent the activity of hDAAO. All compounds were dissolved in DMSO. Each compound was diluted with DMSO in 3-fold serial dilution to create a dose response curve. Each sample was added in triplicate, 1 µL/well, into 96-well black plates. Positive control wells were added with 1 μL of DMSO. Then 49 μL of assay buffer (100 mM Tris-HCl, pH 8.5) containing 1.2 ng/mL hDAAO, 900 nM FAD, 0.2 units/mL HRP, and 100 μM Amplex Red was added to each well of the plate using a multichannel pipette. Next, 50 μL of 100 mM D-Serine in assay buffer was added. The reaction plates were then incubated in the dark at room temperature. The fluorescence readout was detected at 0 and 20 mins by Molecular Device Gemini EM fluorescence reader using the following settings: excitation filter 530 nm, and emission filter 590 nm. The percentage of inhibition values for each well was calculated with the following equation: The percentage of inhibition=(fluorescence sample, 20 min−fluorescence sample, 0 min)/(fluorescence DMSO, 20 min−fluorescence DMSO, 0 min)×100%
The nonlinear curve fitting model in GraphPad Prism was used to calculate IC50 value for each compound.

Sequence of human D-amino acid oxidase (hDAAO) (P14920 whole entry): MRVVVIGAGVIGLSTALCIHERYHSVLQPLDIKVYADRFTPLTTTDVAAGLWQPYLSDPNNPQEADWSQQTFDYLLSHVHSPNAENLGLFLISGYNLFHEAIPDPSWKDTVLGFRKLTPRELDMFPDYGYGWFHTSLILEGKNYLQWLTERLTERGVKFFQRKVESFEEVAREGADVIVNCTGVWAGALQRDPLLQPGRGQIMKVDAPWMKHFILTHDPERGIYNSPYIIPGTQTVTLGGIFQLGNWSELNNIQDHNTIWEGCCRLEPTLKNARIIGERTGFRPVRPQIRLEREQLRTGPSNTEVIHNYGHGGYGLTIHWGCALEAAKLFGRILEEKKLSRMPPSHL

The term IC50 denotes the concentration that inhibits the measured activity by half. In the case of “3-((3-((3-((3-((3-((3-((3-((1H-pyrrole-2-carbonyl)oxy)-4,5-dihydroxybenzoyl)oxy)-4,5-dihydroxybenzoyl)oxy)-4,5-dihydroxybenzoyl)oxy)-4,5-dihydroxybenzoic acid [Compound 28]”, the IC50 was found to be 0.082 µM.
The figure for `O=C(O)c1cc(O)c(O)c(OC(=O)c2cc(O)c(O)c(OC(=O)c3cc(O)c(O)c(OC(=O)c4cc(O)c(O)c(OC(=O)c5cc(O)c(O)c(OC(=O)c6cc(O)c(O)c(OC(=O)c7cc(O)c(O)c(O)c7)c6)c5)c4)c3)c2)c1` [Compound 22, 3-((3-((3-((3-((3-((3,4-dihydroxy-5-((3,4,5-trihydroxybenzoyl)oxy)benzoyl)oxy)-4,5-dihydroxybenzoyl)oxy)-4,5-dihydroxybenzoyl)oxy)-4,5-dihydroxybenzoyl)oxy)-4,5-dihydroxybenzoyl)oxy)-4,5-dihydroxybenzoic acid] is 0.063 µM.
The figure for `O=C(O)c1cc(O)c(O)c(OC(=O)c2cc(O)c(O)c(OC(=O)c3cc(O)c(O)c(OC(=O)c4cc(O)c(O)c(OC(=O)c5cc(O)c(O)c(OC(=O)c6ccc[nH]6)c5)c4)c3)c2)c1` [Compound 25, 3-((3-((3-((3-((3-((1H-pyrrole-2-carbonyl)oxy)-4,5-dihydroxybenzoyl)oxy)-4,5-dihydroxybenzoyl)oxy)-4,5-dihydroxybenzoyl)oxy)-4,5-dihydroxybenzoyl)oxy)-4,5-dihydroxybenzoic acid] is 0.089 µM; for `O=C(O)c1cc(O)c(O)c(OC(=O)c2cc(O)c(O)c(OC(=O)c3cc(O)c(O)c(OC(=O)c4cc(O)c(O)c(OC(=O)c5cc(O)c(O)c(OC(=O)c6cc(CCc7ccccc7)n[nH]6)c5)c4)c3)c2)c1` [Compound 34, 3-((3-((3-((3-((3,4-dihydroxy-5-((3-phenethyl-1H-pyrazole-5-carbonyl)oxy)benzoyl)oxy)-4,5-dihydroxybenzoyl)oxy)-4,5-dihydroxybenzoyl)oxy)-4,5-dihydroxybenzoyl)oxy)-4,5-dihydroxybenzoic acid] it is 0.068 µM.
The figure for `O=C(O)c1cc(O)c(O)c(OC(=O)c2cc(O)c(O)c(OC(=O)c3cc(O)c(O)c(OC(=O)c4cc(O)c(O)c(OC(=O)c5cc(O)c(O)c(OC(=O)c6cc(CCc7cccc8c7CCCC8)n[nH]6)c5)c4)c3)c2)c1` [Compound 42, 3-((3-((3-((3-((3,4-dihydroxy-5-((3-(2-(5,6,7,8-tetrahydronaphthalen-1-yl)ethyl)-1H-pyrazole-5-carbonyl)oxy)benzoyl)oxy)-4,5-dihydroxybenzoyl)oxy)-4,5-dihydroxybenzoyl)oxy)-4,5-dihydroxybenzoyl)oxy)-4,5-dihydroxybenzoic acid] is 0.031 µM.
The molecule `O=C(O)c1cc(O)c(O)c(OC(=O)c2cc(O)c(O)c(OC(=O)c3cc(O)c(O)c(OC(=O)c4cc(O)c(O)c(OC(=O)c5cc(O)c(O)c(OC(=O)c6cc(CCc7ccc(F)cc7)n[nH]6)c5)c4)c3)c2)c1` [Compound 50, 3-((3-((3-((3-((3-((3-(4-fluorophenethyl)-1H-pyrazole-5-carbonyl)oxy)-4,5-dihydroxybenzoyl)oxy)-4,5-dihydroxybenzoyl)oxy)-4,5-dihydroxybenzoyl)oxy)-4,5-dihydroxybenzoyl)oxy)-4,5-dihydroxybenzoic acid] gave an IC50 of 0.038 µM. This IC50 and that of the molecule before are within 1.5-fold of each other.
`O=C(O)c1cc(O)c(O)c(OC(=O)c2cc(O)c(O)c(OC(=O)c3cc(O)c(O)c(OC(=O)c4cc(O)c(O)c(OC(=O)c5cc(O)c(O)c(OC(=O)c6cc(CCc7cc(F)cc(F)c7)n[nH]6)c5)c4)c3)c2)c1` [Compound 58, 3-((3-((3-((3-((3-((3-(3,5-difluorophenethyl)-1H-pyrazole-5-carbonyl)oxy)-4,5-dihydroxybenzoyl)oxy)-4,5-dihydroxybenzoyl)oxy)-4,5-dihydroxybenzoyl)oxy)-4,5-dihydroxybenzoyl)oxy)-4,5-dihydroxybenzoic acid]: the IC50 was 0.033 µM.
